Consider 16 compounds from patent US8962244B2, “Compounds for modulating RNA binding proteins and uses therefor” (University of Massachusetts, priority 2009, dated 2015).

For experiment [1], the target named is T1, POS-1 (Caenorhabditis elegans, UniProt G5EF15).
T1 construct: 6-his tag (N); made in house; host or cells: E. coli BL21 (DE3) Gold
T1 sequence (G5EF15 80-180): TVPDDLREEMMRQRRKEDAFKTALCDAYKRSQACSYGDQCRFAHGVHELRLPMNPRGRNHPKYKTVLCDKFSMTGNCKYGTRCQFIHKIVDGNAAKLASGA
Description: Dose response gel shift assay, POS-1 with MEX-3 UTR fragment RNA. In kind it is binding. Conditions: 120 nM POS-1, 2-3 nM fluorescein labeled MEX-3 UTR fragment RNA. The procedure:
(§1) A further dose response assay was performed on select compounds of the invention as described below. A sub-saturating concentration of MEX-5 or POS-1 (120 nM) was equilibrated with limiting fluorescein labeled RNA (2-3 nM, TCR2 RNA or MEX-3 UTR fragment RNA respectively) in the presence of varying concentrations of compound. Following equilibration, the reactions were loaded onto a 5% slab polyacrylamide gel and subjected to electrophoresis for about 1 hour to separate protein-RNA complex from free RNA. The gel was scanned on a FUJI FLA-5000 imager, and the fraction of bound RNA determined by dividing the intensity of the bound RNA by the intensity of the bound RNA plus the free RNA. The […] was plotted as a function of compound concentration and fit to a sigmoidal dose response function in order to determine the IC50, the concentration that gives half maximal inhibition.
On the technique in general: Mobility shift assays separate free from complexed probe on a gel.

The target in experiment [2] is T2, MEX-5 (Caenorhabditis elegans, UniProt Q9XUB2).
T2 construct: The fragment of mex-5 containing the TZF domain (amino acids 236-350) was amplified; made in house; host or cells: Escherichia coli JM109
T2 sequence (Q9XUB2 236-350): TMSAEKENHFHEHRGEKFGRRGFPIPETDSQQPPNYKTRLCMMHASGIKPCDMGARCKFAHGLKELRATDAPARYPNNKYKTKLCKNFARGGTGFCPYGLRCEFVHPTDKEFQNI
Description: Fluorescence polarization screening of MEX-5 binding to fluorescein-labeled TCR2 RNA. The settings on record: for remaining activity at 192 µM: 192 μM test compound, score = polarization relative to no-drug and no-protein controls, 0.25 = 75% inhibition, lowest score = greatest inhibition, read-out: MEX-5 score; for IC50: further screening as described above (fluorescence polarization), dose response. In short, it runs like this: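 Fluorescence polarization of 2 nM 3′-fluorescein-labelled TCR2 RNA bound by 120 nM MBP-MEX-5 TZF domain (aa 236–350), at sub-saturating binding. Test compounds at 192 μM in 50 mM Tris-HCl pH 8.0, 100 mM NaCl, 0.01% IGEPAL, 0.01 mg/mL yeast tRNA, 100 μM Zn(OAc)2; no-protein and no-compound controls.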

Experiment [3] deals with T1, POS-1. The experiment is described as follows: Fluorescence polarization screening of POS-1 binding to fluorescein-labeled BMF018 RNA. The settings on record: for IC50: further screening as described above (fluorescence polarization), dose response; for remaining activity at 192 µM: 192 μM test compound, score = polarization relative to no-drug and no-protein controls, 0.25 = 75% inhibition, lowest score = greatest inhibition, read-out: POS-1 score. On the technique in general: Polarisation of emitted light reports the rotation of a fluorescent probe.

For experiment [4], the target named is T2, MEX-5. The experiment is described as follows: Dose response gel shift assay, MEX-5 with TCR2 RNA. In kind it is binding. The settings on record: 120 nM MEX-5, 2-3 nM fluorescein labeled TCR2 RNA. Here is the method:
as §1

The test system of the next experiment is MEX-3. The experiment is described as follows: Fluorescence polarization screening of MEX-3 binding to fluorescein-labeled SEQ 14 RNA. Conditions: 192 μM test compound; 80 nM MBP-MEX-3, no zinc acetate; lowest score = greatest inhibition.
For experiment [5], the system named is Caenorhabditis elegans N2 strain worms. Description: C. elegans viability/sterility assay (gonad microinjection). Type of experiment: in vivo. The procedure: Young adult worms with a single row of embryos were selected for microinjection. Each worm was mounted on a dried agarose padded coverslip in halocarbon oil. Varying concentrations of compound, or a DMSO control, were microinjected into each gonad arm of the worm using an inverted microscope with DIC optics. Injected worms were then allowed to recover for 2-3 hours at 15° C. Approximately 10-40 worms were injected per compound tested. Individual worms that survived microinjection were singled out onto new NGM agar plates and allowed to recover overnight at 15° C. The plates were moved to room temperature the next morning. At the end of the day, the adult worm was transferred to a new plate. The embryos laid on each plate were monitored for hatching and inspected for unusual phenotypes. Nematode fertility was estimated by counting the total number of progeny on both plates. Viability was estimated by monitoring the extent of hatching.

Setting [6] is: count per individual injected worm (Worm No. 1-6), Day 2.

As usually defined, the IC50 is the concentration that inhibits the measured activity by half.

Molecules are shown by their SMILES. “And” between values parts separate entries of the source, which are not always exact repeats. Equal entries are not always repeated.

Take `Sc1nnc(COc2cccc3ccccc23)n1-c1ccccc1` [BO]: the IC50 on POS-1 [1] was found to be 33 µM; on MEX-5 [2], 75 µM; at POS-1 [3], 16 µM; at MEX-5 [4], 120 µM. In addition, the remaining activity at 192 µM at MEX-5 [2] is 19%.
On to `O=C(O)c1ccc(NC(=S)NC(=O)c2ccc(I)cc2)cc1` [AE], for which the remaining activity at 192 µM at MEX-5 [2] turned out to be 8.11%; at POS-1 [3] it was 3.61%. The MEX-3 score with MEX-3 was found to be 0.1624.
Take `CC(=O)Oc1ccccc1-c1nc2s/c(=C3\C(=O)N(CC(N)=O)c4ccccc43)c(=O)n2n1` [C]: the IC50 turned out to be 5.1 µM on POS-1 [1], 33 µM at MEX-5 [2], 7 µM at POS-1 [3] and 9.5 µM at MEX-5 [4]. The remaining activity at 192 µM was -2.09% at MEX-5 [2] and -2.48% on POS-1 [3].
On to `O=C(CSc1nc2ccccc2s1)Nc1ccc(S(=O)(=O)Nc2nccs2)cc1` [DG], for which the IC50 on MEX-5 [2] was found to be 160 µM; on MEX-5 [4], 170 µM. Besides, the remaining activity at 192 µM at POS-1 [3] turned out to be 10.9%.
As to `CCS(=O)(=O)Nc1ccccc1NS(=O)(=O)CC` [BR], the IC50 on POS-1 [1] came out at 150 µM; on MEX-5 [2], 39 µM; on POS-1 [3], 820 µM; at MEX-5 [4], 78 µM. Besides, the remaining activity at 192 µM at MEX-5 [2] is 19.9%.
On to `CCOc1ccc(NS(=O)(=O)c2ccc(C)c(C(N)=O)c2)cc1` [EY], for which the MEX-3 score with MEX-3 is reported as 0.08965.
In turn, `COc1ccc(CCNC(=O)c2ccc(C(=O)NCCc3ccc(OC)c(OC)c3)nc2)cc1OC` [EX] registered an MEX-3 score in the experiment with MEX-3 of 0.0674.
The same measure, in the same setting: then `O=[N+]([O-])c1cccc(/C(=N\O)Nc2nnc(-c3cccnc3)s2)c1` [EZ], with 0.124; and `CCOC(=O)c1sc(NC(=S)NC(=O)c2cc3ccccc3o2)c(C(=O)OCC)c1C` [FB], with 0.2585.
As for `COc1ccc(S(=O)(=O)Nc2ccccc2NS(=O)(=O)c2ccc(OC)cc2)cc1` [E], the IC50 at POS-1 [1] came to 0.17 µM; at MEX-5 [2], 1.5 µM; on POS-1 [3], 0.32 µM; at MEX-5 [4] it was 2 µM. For the same compound, the remaining activity at 192 µM on MEX-5 [2] was -1.07%; on POS-1 [3], -1.62%. In experiment [5] (count per individual injected worm (Worm No. 1-6), Day 1), the “Day 1 Hatchlings” value is 11 and 34 and 2 and 6 and 4 and 67. The “Day 2 Embryos” value in experiment [5] (setting [6]) came to 0. For the same compound, in experiment [5] (setting [6]), the “Day 2 Hatchlings” value came out at 0. Further, in experiment [5] (count per individual injected worm (Worm No. 1-6), unhatched embryos on plate, Day 1), the “Day 1 Embryos” value was 1 and 0 (4×) and 2. Moreover, the “Effect on worm fertility” value in experiment [5] (microinjection into each gonad arm, compared with DMSO controls) is “may sterilize worms at a stage prior to fertilization”.
On to `COc1nnc(-c2ccc(C)c(S(=O)(=O)NCC3CCCO3)c2)c2ccccc12` (stereo not drawn) [DD], for which the IC50 on POS-1 [1] turned out to be 260 µM; on POS-1 [3], 300 µM. Besides, the remaining activity at 192 µM at POS-1 [3] is 7.5%.
For `COc1ccc(Cl)cc1C(=O)Nc1ccc(S(=O)(=O)Nc2nccs2)cc1` [BK], the remaining activity at 192 µM on MEX-5 [2] worked out at 18.4%. For the same compound, the IC50 at MEX-5 [2] was determined as 540 µM; at MEX-5 [4], 110 µM.
Regarding `O=C1C2CC=C(Cl)CC2C(=O)N1c1nnc[nH]1` (stereo not drawn) [DJ], the IC50 at MEX-5 [2] is 3.5 µM; at MEX-5 [4], 3.8 µM. For the same compound, the remaining activity at 192 µM at POS-1 [3] is 13.8%.
Take `Cc1ccc(C(CC(=O)N2CCCC2)c2ccco2)cc1` (stereo not drawn) [FA]: the MEX-3 score in the experiment on MEX-3 is given as 0.2093.
Regarding `O=[N+]([O-])c1ccc(NS(=O)(=O)c2ccccc2)c(NS(=O)(=O)c2ccccc2)c1` [AQ], the remaining activity at 192 µM is 12.4% on MEX-5 [2] and 11.6% on POS-1 [3].
On the same counts, the results for `CCOc1cc(C(NC(C)=O)c2cc([N+](=O)[O-])c3cccnc3c2O)ccc1O` (stereo not drawn) [AL] are 10.4% and 12.3%.
